The text below walks through data of PMC6823370, “A novel nucleoside rescue metabolic pathway may be responsible for therapeutic effect of orally administered cordycepin” (Scientific Reports, 2019).

The subject of series [1] is RAW264.7 cells. Kind of series: Repression of inflammatory gene expression in LPS-stimulated RAW264.7 cells (qPCR). The format is cell-based, mouse. Conditions: for effect of pre-treatment on the inhibitory effect of cordycepin on inflammatory gene expression: LPS. As to the method:
RAW 264.7 mouse macrophage cells were cultured in DMEM supplemented with 10% FBS. Prior to experiments, cells were washed with PBS and cells were maintained in DMEM with 0.5% FBS or 10% FBS for 24 h. LPS was added at 1 µg/mL, 1 h before compound treatment, when needed. When the cells were analysed for concentration levels of cordycepin, 3′-deoxyinosine and CordyTP, the cells were washed twice with PBS. The cells were then treated with methanol and mixed vigorously before the mixture was harvested. The mixture was filtered using filter tubes mentioned above and the filtrate was analysed by liquid chromatography coupled with tandem mass spectrometry (LC-MS/MS). For determination of relative mRNA levels, RNA was isolated from the lysates using an RNA isolation kit, following manufacturer’s protocol (Promega, Madison, WI, cat no. Z6012). RNA was reverse transcribed to cDNA using SuperScript™ III reverse transcriptase (Invitrogen, Carlsbad, CA). Quantitative polymerase chain reaction (qPCR), was performed with Qiagen Rotor-Gene Q qPCR machine (Qiagen, Hilden, Germany) using Promega SYBR Green GoTaq® qPCR master mix (Promega).
Figure 3 Repression effect on inflammatory gene expression. (a) NBTI or ITu treatment prior to cordycepin treatment suppresses effect of cordycepin. RAW264.7 cells were treated with 10 µM NBTI, 100 nM ITu or DMSO (Ctrl, control) 15 min prior to cordycepin treatment. The cells were stimulated with LPS 1 h after cordycepin treatment (mean ± SD, n = 3). **p < 0.01; ***p < 0.001 compared to DMSO treatment (labelled as Ctrl). (b) 3′-deoxyinosine exerts same repression effect as cordycepin, although to a lesser degree. RAW264.7 cells were treated with 20 µM cordycepin, 20 µM 3′-deoxyinosine (3DI) or DMSO (Ctrl, control) for 1 h prior to LPS stimulation (mean ± SD, n = 3). **p < 0.01; ***p < 0.001 compared to without compound treatment (labelled as LPS).
Background: In qPCR the cycle at which signal appears reflects the starting amount.

Series [2] is described as follows: Caco-2 permeability. The format is in vitro ADME. Conditions: human, Caco-2; read-out: Papp of 3′-deoxyinosine, A to B. As to the method:
(§1) Caco-2 permeability assays were conducted following previously reported methods with 21-day maintenance on the Corning 24-well Transwell® (Fisher Scientific, Loughborough, UK)[48]. […] Both directions of apical-to-basolateral and basolateral-to-apical were tested. […] The experiments were conducted in triplicates.
(§2) Samples from Caco-2 permeability, in vitro determination of CordyTP formation and in vivo experiments were subjected to protein precipitation followed by LC-MS/MS analysis. To 50 µL of rat plasma sample, 150 µL of internal standard solution (1.67 µg/mL 2-chloroadenosine in methanol) was added. The samples were then vortex-mixed for 10 s and were centrifuged for 3 min at 17949 g. Supernatant (20 µL) was collected and diluted 10-fold with DDW before injection into the LC-MS/MS for analysis of cordycepin and 3′-deoxyinosine. For analysis of CordyTP, the supernatant was filtered using filter tubes mentioned above and injected without dilution. Tissue samples were homogenised using Bullet Blender Gold (Next Advance, Inc., Troy, NY) in methanol (1:3 w/v) and centrifuged for 3 min at 17949 g. The supernatant was filtered and injected for analysis of CordyTP or diluted 10-fold with DDW for analysis of cordycepin and 3′-deoxyinosine. The LC-MS/MS system was a API4000 QTrap (AB Sciex, Warrington, UK) equipped with HPLC setup of SCL10Avp controller, LC10ADvp pump and SILHTC autosampler (Shimadzu, Milton Keynes, UK). Three different methods were utilised for each compound and multiple reaction monitoring parameters of the MS/MS conditions are shown in Table 1. The HPLC conditions including stationary phases and specific mass spectrometry parameters are shown in Supplementary Information 2. The LC-MS/MS method for cordycepin was fully validated in terms of accuracy, precision, sensitivity, selectivity, linearity and sample storage stability in accordance with the Guidance for Industry, Bioanalytical Method Validation, (2018) published by the US FDA (refer to Supplementary Information 3 for validation procedures and results)[53].

The test system of series [3] is Caco-2 cells. As to the kind of experiment: Caco-2 permeability. It is filed as in vitro ADME. Conditions: cells treated with cordycepin in the absence of pentostatin. On the procedure:
as §1, §2

Series [4] can be described thus: In vivo pharmacokinetics in rats after intravenous or oral cordycepin. More on the design: species or system Sprague Dawley rats. Conditions: male, Sprague Dawley; for C0: in vivo, read-out: C0 of 3′-deoxyinosine; for Vd: plasma, rat, read-out: Vss of 3′-deoxyinosine. On the procedure: Protocols for the animal experiments in this study were reviewed and approved by the University of Nottingham Ethical Review Committee in accordance with the Animals [Scientific Procedures] Act 1986. Four male Sprague Dawley rats (Charles River Laboratories, UK) of 300–350 g body weight were used. The animals were housed in the Bio Support Unit, University of Nottingham at controlled temperature, 12 h light/dark cycle and free access to food and water. The animals were allowed to acclimatise for at least six days prior to any procedures.
Prior to pharmacokinetic studies, jugular vein cannulation surgery was performed under general anaesthesia (<3% isoflurane inhalation) for blood sampling or intravenous drug administration. Following two nights of recovery from surgery, the animals were intravenously or orally administered with the PBS-based formulation (5.5 mg/mL cordycepin) developed in a previously reported study. The dose was 8 or 20 mg/kg for intravenous administration and 8 or 80 mg/kg for oral administration. […] When whole blood was analysed, an aliquot was withdrawn immediately after mixing with the pretreated pentostatin. Otherwise, the mixture was centrifuged (3000 g, 10 min) to obtain plasma and samples were stored within the storage conditions tested prior to analysis.
as §2
Data are presented as mean ± standard deviation (SD). A two-tailed unpaired t-test was applied for assessment of statistical significance of differences between two groups. For three or more groups, the statistical significance was assessed by application of a one-way ANOVA followed by Tukey’s multiple comparisons test. A p-value lower than 0.05 was deemed statistically significant. Statistical analyses were conducted using GraphPad Prism version 7.01 (GraphPad Software, Inc., La Jolla, CA, USA). Pharmacokinetic parameters were obtained by non-compartmental analysis using Phoenix WinNonlin 6.3 software (Pharsight, Mountain View, CA, USA).
For calculation of pharmacokinetic parameters, the plasma concentration-time curve was plotted in a semi-log scale. From the plot, the elimination rate constant (ke) was calculated. Elimination half-life (t1/2) wasthen calculated using the following equation: […]

Usually Papp A→B stands for how fast a substance crosses the layer from the apical side. The Cmax is the maximum level reached in the sampled fluid or tissue.

Read-outs that look alike come from different tables or passages of the source.

As for `O=[N+]([O-])c1ccc(CSc2ncnc3c2ncn3[C@@H]2O[C@H](CO)[C@@H](O)[C@H]2O)cc1` [NBTI, S-(4-nitrobenzyl)-6-thioinosine, reference compound], the “effect of pre-treatment on the inhibitory effect of cordycepin on inflammatory gene expression” value in series [1] (10 µM NBTI 15 min prior to cordycepin) was “inhibit the inhibitory effect of cordycepin”.
`Nc1ncnc2c1c(I)cn2[C@@H]1O[C@H](CO)[C@@H](O)[C@H]1O` [ITu, 5-iodotubericidin, reference compound]: in series [1] (100 nM ITu 15 min prior to cordycepin), the “effect of pre-treatment on the inhibitory effect of cordycepin on inflammatory gene expression” value is “inhibit the inhibitory effect of cordycepin”.
Turning to `OC[C@@H]1C[C@@H](O)[C@H](n2cnc3c(O)ncnc32)O1` [3′-deoxyinosine], in series [2], the Papp A→B at 120 min, 200 µM is about 0.2 ×10⁻⁶ cm/s. For the same compound, in series [3], the “permeation of 3′-deoxyinosine” value was “detected”. Also, the C0 in series [4] (rat plasma, intravenous cordycepin 8 mg/kg) was 5730 ± 1630 ng/mL; in series [4] (rat plasma, intravenous cordycepin 20 mg/kg) it was 16300 ± 3870 ng/mL. For the same compound, the Vd in series [4] (intravenous cordycepin 8 mg/kg) amounted to 2.8 ± 0.3 L/kg; in series [4] (intravenous cordycepin 20 mg/kg), 3 ± 0.7 L/kg. Further, the Cmax in series [4] (rat plasma, oral cordycepin 8 mg/kg, read-out: Cmax of 3′-deoxyinosine) is 202 ± 98 ng/mL. Also, in series [1] (20 µM, 1 h prior to LPS stimulation), the “effect on expression of inflammatory genes” value is listed as “suppressed expression of inflammatory genes”.
